Data taken from patent US20260356879A1, “CELASTROL DERIVATIVES” (Celloram Inc., priority 2022, published 2026).
pIC50: −log10 of the molar value. Entries after “also recorded” stand apart in the source; their conditions may differ.

Experiments:
[1] = test system: NLRP3 inflammasome; test: Detection of ASC complex and caspase-1 activity in THP-1 cells by Amnis imaging flow cytometry; format: cell-based, human; conditions: THP-1, LPS+Nigericin
Method: FIG. 3A shown images of western blot analysis of THP1 cells treated with LPS, and compound 1 (CLM-001) or compound 22, followed by Nigericin for NLRP3 inflammasome activation. The inflammasome ASC complex in the control cells (LPS+Nigericin) was compared with the treatment of compound 1 (CLM-001) (50 nM, 100 nM), compound 22 (CLM-022) (50 nM, 100 nM), and MCC950 (100 nM, 200 nM). FLICA (green) represents active caspase-1, ASC (red) complex is shown as a red speckle near the nucleus membrane, and DAPI stain for nucleus (blue) captured in the AMNIS analysis. FIG. 3B depicts the cell numbers stained as ASC+ (red) and FLICA+ (green) in the AMNIS were counted in order to compare the level of NLRP3 inflammasome activity in the cells treated as indicated (left). The ASC+ and FLICA+ cells were also plotted as a percentage of total cell count (right). […]
Amnis Imaging flow cytometry (Luminex Co.) is a high-throughput, single-cell, fluorescence-based image analysis method which can detect inflammasome by acquiring images of cellular distribution of ASC complex and active caspase-1. […] The treated cells were subjected to ASC staining and visualization of active caspase-1 using FLICA, a caspase-1 substrate exerting fluorescence upon cleavage. Finally, the ASC+/FLICA+ cells were counted as THP-1 cells with active NLRP3 inflammasome complex.

[2] = test system: TNF-α secretion; test: TNF-α secretion in BMDMs, LPS + Nigericin; format: cell-based, mouse; conditions: FIG. 5B
Method: (§1) This example illustrates a comparative study of CLM-022 and MCC950 in inhibiting NLRP3 inflammasome activity in mouse and human macrophages.
Bone marrow-derived macrophages (BMDMs) were treated with LPS (100 ng/ml) for 3 hours to induce the expression of inflammatory genes, including TNF-α, NLRP3, and pro-IL-1β. Subsequently, the BMDMs were treated with CLM-022 or MCC950 in a dose range of 0-10 μM for 30 minutes. Then, to fully activate NLRP3-dependent inflammasome activity and cytokine secretion, Nigericin (10 μM) was added to the BMDMs for an additional 30 minutes.

[3] = test system: TNF-α secretion; test: TNF-α secretion in THP-1 macrophages, LPS + Nigericin; format: cell-based; conditions: human THP-1 macrophages, FIG. 5D
Method: as §1
To confirm the inhibitory effect of CLM-022 in human macrophages, THP-1 cells, a human leukemia monocytic cell line, were differentiated into macrophages using phorbol 12-myristate-13-acetate (PMA, 100 ng/ml) treatment for one day. The THP-1 macrophages were then treated with LPS (100 ng/ml) for 3 hours to induce the expression of inflammatory genes. Subsequently, the THP-1 cells were treated with CLM-022 or MCC950 in a dose range of 0-10 μM for 30 minutes. Then, to fully activate NLRP3-dependent inflammasome activity, Nigericin (10 μM) was added to the THP-1 cells for an additional 60 min.

[4] = test system: THP-1 cells; test: LDH release (NLRP3 inflammasome-induced cytotoxicity) in THP-1 cells; format: cell-based, human; conditions: for inhibition of inflammasome-induced pyroptosis: human THP-1 macrophages, overall comparison with MCC950, FIG. 7A-7C
Source text: Pyroptosis, a pro-inflammatory form of cell death, is triggered by the activation of NLRP3 inflammasome components (GSDMD and Caspase-1), leading to the release of pro-inflammatory cytokines IL-1β and IL-18, as well as damage-associated molecular patterns (DAMPs). This process elicits a cascade of inflammatory responses, which can persist if dysregulated in affected tissues. Given the significant inhibitory potential of CLM-022 against NLRP3 inflammasome and IL-1β secretion, it was proposed that CLM-022 could effectively enhance cell viability by inhibiting pyroptosis in the context of inflammation and inflammasome activation. This example illustrates a comparative study of the abilities of CLM-022 and MCC950 to protect THP-1 cells from inflammasome-induced pyroptosis.
After LPS and Nigericin treatment, THP-1 cells were treated with either CLM-022 or MCC950 over a dosage range of 0 μM to 10 μM and cell viability was determined by impermeant live/dead staining dye and flow cytometric analysis. Additionally, NLRP3 inflammasome-induced cytotoxicity was investigated by measuring the level of LDH in the conditioned media after the CLM-022 and MCC950 treatments. Further, Western blotting of samples from the THP-1 cell viability assays was carried out to determine levels of the pyroptosis-mediating molecules, GSDMD and Caspase-1.

## CC1=C(O)C(=O)C=C2C1=CC=C1[C@@]2(C)CC[C@@]2(C)[C@@H]3C[C@](C)(N(C)C(=O)C(=O)N(C)C)CC[C@]3(C)CC[C@]12C [Compound 22, N′-[(2R,4aS,6aR,6aS,14aS,14bR)-10-hydroxy-2,4a,6a,6a,9,14a-hexamethyl-11-oxo-1,3,4,5,6,13,14,14b-octahydropicen-2-yl]-N,N,N′-trimethyl-oxamide]
[1]; Homo sapiens, FIG. 3C, read-out: concentration at which a strong inhibitory function was observed (as low as)
  minimal effective concentration: ≤ 0.025 µM
[1]; FIG. 3B
  inhibition of cellular ASC+FLICA+ specks / inflammasome complex: strong inhibitory effect; also recorded: inhibited NLRP3 inflammasome activity in THP1 and the cellular inflammasome complex as visualized by Amnis analysis
[2]
  suppression of TNF-α secretion: neither CLM-022 nor MCC950 suppressed TNF-α secretion
[3]
  inhibition of TNF-α secretion: but not TNF-α
[4]; Homo sapiens, THP-1, LPS and Nigericin, 0 μM to 10 μM, FIG. 7B, read-out: IC50 for LDH release (normalized)
  pIC50: 7.91
[4]; THP-1, LPS and Nigericin, FIG. 7B
  inhibition of LDH release: significantly inhibited release of LDH
[4]; from LDH release IC50 values, FIG. 7B
  higher potency relative to MCC950 in preventing pyroptosis: 10 fold
[4]
  inhibition of inflammasome-induced pyroptosis: greater capacity to inhibit inflammasome-induced pyroptosis in human THP-1 macrophages
[4]; listed as CLM-022
  inhibition of inflammasome-induced pyroptosis: greater capacity than the benchmark molecule, MCC950, to inhibit inflammasome-induced pyroptosis in human THP-1 macrophages
